For this test, the system named is GUMC-403. The test can be described thus: viability at highest tested concentration (max response) relative to DMSO (% of DMSO control); higher = less cytotoxic. As to conditions: library / dose series: MIPE library, 11-point 1:3 dilution, 48 h. In short, it runs like this:
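Conditionally reprogrammed GUMC-403 papilloma cells from a patient were plated at 700/well in 5 μL F + Y medium in 1536-well plates and left overnight at 37 °C. A pin tool then added 23 nL of library compounds as an 11-point 1:3 series, for 48 h. CellTiter-Glo luminescence was read on a ViewLux and scaled with vehicle wells set to 100% and empty wells to 0%. Each value gives viability at the highest tested concentration relative to vehicle control.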

Molecules are shown by their SMILES.

Turning to `COc1ccc2c(c[n+](C)c3c4cc5c(cc4ccc23)OCO5)c1OC`, the viability (top concentration 46.1 µM) was 38.7.
Same read-out and setting: to `C=C1C(=O)O[C@@H]2[C@H]3O[C@]3(C)CC/C=C(\C)CC[C@@H]12` belongs 108; to `COc1cc2c(Oc3ccc(NC(=O)C4(C(=O)Nc5ccc(F)cc5)CC4)cc3F)ccnc2cc1OCCCN1CCOCC1`, 23.1.
`C[C@]12CCC(=O)C=C1CC[C@@H]1[C@@H]2CC[C@@]2(C)[C@H]1CC[C@]2(C)O` had a viability (top concentration 92.2 µM) of 128.
For `O=C/1\C=C(/OC(=C1)/C2=C3SC4=C(SC3=CC=C2)C=CC=C4)N5CCOCC5`, where the note is “top concentration 46.1 µM”, the viability is 111.
Same read-out and setting: to `NC(=O)c1ncn([C@@H]2O[C@H](CO)[C@@H](O)[C@H]2O)c1O` belongs 116; to `C[C@@H]1C[C@H]2[C@@H]3\C=C(C)/C4=C/C5=C(C[C@]4(C)[C@H]3[C@@H](O)C[C@]2(C)[C@@]1(O)C(=O)COC(C)=O)C=N[N]5C6=CC=CC=C6`, 107.
Same read-out and setting: as for `Cc1cccc(C#Cc2ccccc2)n1`, the figure is 101.
The same measure, in the same setting: as for `Cc1ccc(C(=O)c2cc(O)c(O)c([N+](=O)[O-])c2)cc1`, the figure is 102; as for `NC(=O)N1c2ccccc2CC(=O)c2ccccc21`, 111; as for `Fc1ccc(C(c2ccc(F)cc2)N2CCN(C/C=C/c3ccccc3)CC2)cc1`, 109.
On to `COc1nccc(-c2c(-c3ccc(F)cc3)ncn2C2CCNCC2)n1`, for which the viability (top concentration 46.1 µM) was determined as 131.
As to `CCN1\C=C(C(O)=O)/C(=O)C2=C1C=C(N3CCN(C)CC3)C(=C2)F`, the viability (top concentration 46.1 µM) came to 115.
Compound `C\C1=N\N(C(=O)C1)C2=CC=CC=C2` showed a viability (top concentration 46.1 µM) of 97.2.
Same read-out and setting: to `C[N]1C=C(C2=CC=CC=C12)\C3=C(\C(=O)NC3=O)C4=C[N](C5CCN(CC5)CC6=NC=CC=C6)C7=C4C=CC=C7` belongs 128.
The same measure, in the same setting: as for `CC(C)OC(=O)[C@H](C)N[P@](=O)(OC[C@H]1O[C@@H](N2\C=C/C(=O)NC2=O)[C@](C)(F)[C@@H]1O)OC3=CC=CC=C3`, the figure is 107; as for `CCCCCCCCCCCC/1=C(O)/C(=O)/C=C(O)\C1=O`, 89; as for `NC(=O)c1nnn(Cc2cc(Cl)c(C(=O)c3ccc(Cl)cc3)c(Cl)c2)c1N`, 90.7.
Same read-out and setting: as for `Nc1cc(c(cc1S(=O)(N)=O)S(N)(=O)=O)C(/Cl)=C(/Cl)Cl`, the figure is 105; as for `Cc1nc2c([nH]1)-c1ccccc1N(C(=O)c1ccc(NC(=O)c3ccccc3-c3ccccc3)cc1)CC2`, 126.
The compound `NCC/1=C/NC(=S)N1[C@H]2CCC3=C(F)C=C(F)C=C3C2` returned a viability (top concentration 46.1 µM) of 95.9.
On the same count and under the same terms, as for `COc1cc(OC)c(OC)cc1C=O`, the figure is 107; as for `CN\1C(=O)/C(=C(\N=C1N2CCCC[S+]2([O-])=O)C(=O)NCC3=CC=C(F)C=C3)O`, 121; as for `C=CC(=O)Nc1cc2c(Nc3ccc(F)c(Cl)c3)ncnc2cc1OCCCN1CCOCC1`, 81.6.
The same measure, in the same setting: to `NC(=O)N/N=C/c1ccc([N+](=O)[O-])o1` belongs 135.
Regarding `NC\1=N\C(=O)N(\C=C1)[C@@H]2O[C@H](CO)[C@@H](O)[C@@H]2O`, the viability (top concentration 46.1 µM) worked out at 113.
In the case of `O=C1NC(=O)/C(=C/c2ccc3c(c2)OC(F)(F)O3)S1`, where the note is “top concentration 46.1 µM”, the viability came to 94.
In turn, `OC1=CC(=C(C=C1)\C2=C(O)\C(=O)C3=C(O2)C=C(O)C=C3O)O` came in with a viability (top concentration 46.1 µM) of 93.9.
The compound `C[N]1C=C(C2=C1C=CC=C2)\C3=C(\C(=O)NC3=O)C4=C5CC(CN)CC[N]5C6=C4C=CC=C6` (stereo unspecified) gave a viability (top concentration 46.1 µM) of 42.9.
For the setting “top concentration 46.1 µM”, `C[C@H]1C[C@@H]2[C@H](CC[C@@]3(C)[C@H]2CC[C@]3(OC(C)=O)C(C)=O)[C@@]\4(C)CCC(=O)\C=C14` registered a viability of 147.
On the same count and under the same terms, to `O=C(Oc1ccc([N+](=O)[O-])cc1)N1CCN(Cc2cccc(Oc3ccccc3)c2)CC1` belongs 63.7.
With `CC(C)C[C@H](NC(=O)c1cc2ccccc2s1)C(=O)N1CCN(C(=O)[C@H](CO)N[S+](=O)([O-])c2ccc(Cl)cc2Cl)CC1`, under “top concentration 46.1 µM”, the viability turned out to be 109.
Take `CC(C)n1c(/C=C/[C@H](O)C[C@H](O)CC(=O)O)c(-c2ccc(F)cc2)c2ccccc21`: the viability (top concentration 46.1 µM) was found to be 103.
Same read-out and setting: as for `COc1cc(Oc2ccnc3cc(OC)c(OC)cc23)ccc1NC(=O)NC(C)c1nccs1` (stereo unspecified), the figure is 110; as for `COC1=CC=C(C(=C1)OC(C)C)C/2=N/[C@@H]([C@@H](N2C(=O)N3CCNC(=O)C3)C4=CC=C(Cl)C=C4)C5=CC=C(Cl)C=C5`, 121.
As for `N[S+](=O)([O-])c1cc2c(cc1Cl)NCN[S+]2(=O)[O-]`, the viability (top concentration 46.1 µM) amounted to 108.
Same read-out and setting: to `N[C@@H](Cc1ccc(O)c(O)c1)C(=O)O` belongs 133; to `CCOC(=O)C/1=C(O)/C(=O)N(CC2=CC=CC=C2)C1`, 136; to `COC(=O)N[C@H](C(=O)N[C@@H](Cc1ccccc1)[C@@H](O)CN(Cc1ccc(-c2ccccn2)cc1)NC(=O)[C@@H](NC(=O)OC)C(C)(C)C)C(C)(C)C`, 112.
Turning to `CCCCCC[C@H]1C(=O)O[C@H](C)[C@H](NC(=O)c2cccc(NC=O)c2O)C(=O)O[C@@H](C)[C@@H]1OC(=O)CC(C)C`, where the note is “top concentration 46.1 µM”, the viability came out at 97.1.
Take `CCCCCCCCCCCCCC(=O)N[C@H](CO)[C@H](O)c1ccc([N+](=O)[O-])cc1`: the viability (top concentration 46.1 µM) was determined as 116.
Compound `Cc1ccc(O)c(C(CCN(C(C)C)C(C)C)c2ccccc2)c1.Cl` (stereo unspecified) came in with a viability (top concentration 46.1 µM) of 125.
Still for that read-out and setting: to `CCCCc1ccc(N[S+](=O)([O-])c2ccc(C)c(C(=O)N3CCN(c4cccc(C)c4C)CC3)c2)cc1` belongs 111.
Same read-out and setting: to `NC(=O)Cc1cccc(C(=O)c2ccccc2)c1N` belongs 112; to `C=CC(=O)Nc1cc2c(Nc3ccc(F)c(Cl)c3)ncnc2cc1C#CC(C)(C)N1CCN(C)CC1`, 75.9.
The same measure, in the same setting: as for `COC1=CC=C(C=C1O)C/2=C/C(=O)C3=C(O2)C=C(O[C@@H]4O[C@H](CO[C@@H]5O[C@@H](C)[C@H](O)[C@@H](O)[C@H]5O)[C@@H](O)[C@H](O)[C@H]4O)C=C3O`, the figure is 117; as for `O=C(CS(=O)Cc1ccco1)NC/C=C\COc1cc(CN2CCCCC2)ccn1` (stereo unspecified), 128.
As to `N=C(N)c1ccc(OCCCCCOc2ccc(C(=N)N)cc2)cc1`, the viability (top concentration 46.1 µM) was 101.
On the same count and under the same terms, as for `Cc1c[nH]c(/C=C2\C(=O)Nc3ccccc32)c1CCC(=O)O`, the figure is 136.
Where the note is “top concentration 46.1 µM”, `COc1ccccc1N1CCN(CC(O)COc2cccc3ccccc23)CC1` (stereo unspecified) had a viability of 99.1.
Same read-out and setting: as for `CN1CCCN=C1/C=C/c1cccs1.O=C(O)c1cc2ccccc2c(Cc2c(O)c(C(=O)O)cc3ccccc23)c1O`, the figure is 79.8; as for `COc1cc2c(Oc3ccc4[nH]c(C)cc4c3F)ncnc2cc1OCCCN1CCCC1`, 64.4; as for `Cc1[nH]c(/C=C2\C(=O)Nc3ccc([S+](=O)([O-])Cc4c(Cl)cccc4Cl)cc32)c(C)c1C(=O)N1CCC[C@@H]1CN1CCCC1`, 113.
On the same count and under the same terms, as for `COc1cc2nccc(Oc3ccc(NC(=O)NC4CC4)c(Cl)c3)c2cc1C(N)=O`, the figure is 89.9; as for `Clc1ccc(COC(Cn2ccnc2)c2ccc(Cl)cc2Cl)c(Cl)c1` (stereo unspecified), 92.5; as for `CN(C)CCOc1ccc(/C(=C(/CCCl)c2ccccc2)c2ccccc2)cc1`, 104.

The record behind these values is the supplement of paper PMC6723410.
